US20070173545A1, “Activation of hypoxia-inducible gene expression” (priority 2003, published 2007)
“Also recorded” adds a separate entry of the source. Like-named read-outs stand apart in the source and are kept apart here.

Key:
HIF-1a [1] = assay: HIF-1a induction in digitonin-permeabilized human glioma cells (U87, U251); assay type: cell-based; conditions: 1 mM doses
Method: We determined the ability of each shown structure to induce HIF by exposing digitonin-permeabilized human glioma cells (U87, U251) to 1 mM doses.
At four hours, ATP levels were measured in cell extracts using the luciferase method.
(§1) In order to investigate the mechanism of action of the 2-oxoacid HIF inducers that we identified we first determined their effects upon cellular ATP levels. […] As shown in the scheme in FIG. 1, cellular levels of HIF-1a can be elevated by blockade of proteasomal activity, ubiquitinylation, or prolyl hydroxylation. Inhibition of the proteasome by lactacystin beta-lactone (Lbl) leads to accumulation of HIF-1a in its polyubiquitinylated form which generally appears as a smear of higher molecular weight species on western blots. […] Cellular accumulation and nuclear translocation of HIF-1a can also be studied via immunohistochemistry. For this purpose we utilized U251 cells which are more adherent to cell culture dishes that the U87 cells.

HRE containing promoter = assay: HRE-luciferase reporter in U251 cells; assay type: cell-based, human
From the text: FIG. 18: 2-oxoacids activate HIF-mediated gene expression in human cell lines Effective gene expression by HIF not only involves HIF protein stabilization via inhibition of HPH enzymes but also HIF-1 binding to DNA, inhibition of FIH-1 activity, and gene transcription (see FIG. 1). (A) Glioma cells used in our studies express FIH-1 as assessed using RT-PCR. […] Expression of beta-actin, a housekeeping gene not under HIF regulation is not affected by pyruvate. […] (E) U373 cell were transfected with a green fluorescent protein (GFP) construct under the control of an HIF regulatory element (HRE) containing promoter and then cultured for eight hours in glucose-free medium under the indicated conditions. […] U251 cells stably transfected with a luciferase construct under the control of an HRE containing promoter were cultured for six hours in glucose free Krebs with the following conditions: 1=control, 2=1% oxygen, 3=pyruvate (2 mM), 4=OAA (2 mM), 5=Ethylpyruvate (2 mM), 6=Glucose (5.5 mM), 7=DMOG (0.5 mM), 8=Lactacystin-beta lactone ([…]).
FIG. 19: HIF-mediated gene expression is selectively reversed by ascorbate U251 cells stably expressing HRE-luciferase were cultured in glucose-free Krebs buffer with the indicated conditions for eight hours. Pyruvate, oxaloacetate, and DMOG were added at 1 mM each.
Effective gene expression by HIF not only involves HIF protein stabilization via inhibition of HPH enzymes but also HIF-1 binding to DNA, inhibition of FIH-1 activity, and gene transcription. The human gliomas that we utilized for most of our studies all express mRNA for FIH-1 (FIG. 18A). […] To directly assess activation of gene containing an HRE regulated promoter by the glucose metabolites pyruvate and oxaloacetate, we used U373 glioma cells transfected with an HRE-green fluorescent (HRE-GFP) construct that responds to HIF activation.

HIF-1a protein [2] = assay: HIF-1a levels in nuclear extracts of U87 glioma cells (western blot); assay type: cell-based, human; conditions: for HIF-1a accumulation, glucose replaced with metabolite: glucose-free Krebs, 3 mM concentrations; for Effect on induction of HIF-1a by glucose (Krebs buffer): 50 μM IAA, 1 mM 4-CIN, NAD or NADH 3 mM each, catalase 1000 and 2000 units/ml
Method: (A) U87 glioma cells cultured in DMEM were switched to Krebs buffer containing 5.5 mM glucose (Glc) and then evaluated for nuclear HIF-1a levels at various times by western blot analysis. (B) HIF-1a levels were measured after four hours incubation of cells in Krebs buffer containing the indicated glucose concentrations or with 5.5 mM 2-deoxyglucose (2-DG) substituted for glucose. (C) HIF-1a levels were measured in U87 cells cultured in glucose-free Krebs buffer following treatment for four hours under normoxia (21% oxygen) hypoxia (1% oxygen) or with 150 μm desferrioxamine (DFO). (D) Induction of HIF-1a by glucose was monitored in the presence of 50 μM IAA or 1 mM 4-CIN. […] Results are representative of experiments repeated at least three times.
Similar measurements were made in the presence of 50 μM IAA or in glucose-free Krebs buffer. […] HIF-1a induction by four hours treatment with 5.5 mM glucose-containing Krebs (Glc) is shown for comparison. (E) Digitonin-permeabilized cells were treated with 1% oxygen or Krebs containing either 5.5 mM glucose or 2 mM pyruvate in the presence of 50 μM IAA. Permeabilized cell in lanes 5 and 6 were treated with 3 mM NAD or NADH respectively in glucose free Krebs. Nuclear HIF-1a levels were determined four hours later. (F) HIF-1a levels were determined after four hour treatment of cells in glucose-free Krebs (lane 1) or 5.5 mM Glucose containing Krebs. […] (H) To measure the decay of the HIF-1a protein, HIF-1a measurements were made after four hour treatment under hypoxia (lane 1), four hours hypoxia followed by 30 minutes normoxia (lane 2), four hour treatment with 150 μM DFO (lane 3), four hours DFO followed by addition of 100 μM CHX for one hour (lane 4), four hours treatment with 2 mM pyruvate (lane 5), and four hours pyruvate followed by addition of 100 μM CHX for one hour (lane 6). (H) HIF-1a levels were determined in digitonin-permeabilized cells treated for four hour with Krebs containing no glucose (lane 1), 1 mM pyruvate (lane 2), or 1 mM pyruvate and 10 mM 2-OG (lane 3).
In order to resolve the biochemical mechanisms underlying this phenomenon, we studied the human glioma cell line U-87 under conditions of carefully defined culture media. Thus we studied these cells while culturing them in freshly prepared Krebs buffer, all components of which were known to us.
To precisely define the glucose metabolite mediating HIF-1a accumulation, we utilized pharmacological inhibitors of glycolysis as well as the direct addition of different glucose metabolites to cells (FIG. 4).

HIF-1a [3] = assay: HIF-1a decay after washout of the inducer in U251 and U87 cells; assay type: cell-based, human; conditions: 1 mM pyruvate four hours, then glucose free Krebs in normoxia
Method: FIG. 16: Ascorbate reverses the prolonged HIF-1a accumulation (A) Comparison of HIF-1a decay in U251 following induction with either hypoxia or pyruvate. U251 cells were cultured in glucose-free Krebs under hypoxia or with 1 mM pyruvate in normoxia for four hours. Following this cells were switched to glucose free Krebs in normoxia and fixed in formaldehyde at the indicated times. Cells were then stained for HIF-1a immunoreactivity. Note the rapid decay of nuclear HIF-1a staining after having been induced by hypoxia versus pyruvate. (B) U87 cell treated for four hours under hypoxia show prominent HIF-1a induction which is completely degraded by thirty minutes of re-oxygenation. U87 cells were treated in glucose-free Krebs buffer with or without 1 mM pyruvate or oxaloacetate.
HPH-2 has been reported to constitute the major HPH activity of most cells. We therefore evaluated the ability of ascorbate to prevent HIF-1a accumulation by pyruvate and oxaloacetate in living cells. […] To test this possibility we compared the reversibility of HIF-1a accumulation following induction with either hypoxia, pyruvate, or oxaloacetate. The rationale for these experiments stems from the well-known reversible inhibition of HPH activity by hypoxia (see FIG. 1). Thus HIF-1a accumulation and HIF activation during hypoxia is rapidly reversed upon re-oxygenation. […]

HPH-1 [4] = target: T1, HPH-1 (Homo sapiens, UniProt Q9H6Z9); assay: ^35S-pVHL capture assay, HPH-1; assay type: biochemical; design: made in house; host or cells: rabbit reticulocyte in vitro translation from expression plasmids; conditions: assay optimization shown for HPH-1, dose curves
Method: After incubating the peptide with the HPHs and the indicated reagents, ^35S-pVHL was added followed by addition of streptavidin-coated beads to pull down the HIF-1a peptide. The reaction was pelleted, the pellet was washed and then solubilized for SDS-PAGE analysis followed by autoradiography to reveal the captured ^35S-pVHL. Using in vitro translated HPH homologues we first optimized assay conditions with respect to the required HPH substrates and co-factors. […] Conditions: ascorbate=2 mM, 2-OG=2 mM, DTT=1 mM. […] In all assays 5 μl (about 20 ng) of enzyme and 1 μg of peptide was utilized.
Ascorbate concentrations were varied as indicated and OAA or Pyr were added where indicated at 1 mM.
After incubating 1 μg amount of the peptide with in vitro translated HPH and the indicated reagents, ^35S-pVHL was added followed by the addition of Streptavidin-coated beads to pull down the HIF-1a peptide. The reaction was pelleted, and the pellet was washed and solubilized for SDS-PAGE analysis followed by autoradiography to reveal the captured ^35S-pVHL. Using each of the in vitro translated HPH homologues we first optimized assay conditions with respect to the required HPH substrates and co-factors.

HPH = HPH activity of extracts of pretreated U251 cells (^35S-pVHL pulldown); assay type: cell-based, human; conditions: four hours, 1 mM pyruvate or oxaloacetate, DMOG
Method: FIG. 17: Inactivation of cellular HPH activity by pyruvate and oxaloacetate U251 cells were cultured for four hours in glucose-free Krebs buffer with or without the indicated additions. Whole cell extracts were then prepared and used as a source of HPH enzyme to hydroxylate a biotinylated peptide from the HIF-1a ODD containing proline 564. Proline hydroxylation was measured by the ability of streptavidin coated beads to pulldown the hydroxyproline ^35S-pVHL complex as in FIGS. 12-14.
To directly determine whether HPH activity had been inactivated by pyruvate or oxaloacetate treatment, we evaluated the ability of U251 cell extracts from pyruvate or oxaloacetate treated cells to hydroxylate HIF-1a peptide using the ^35S-pVHL pulldown assay (Ivan et al. (2002) Proc. Natl. Acad. Sci. USA 99, 13459-13466). In these experiments, ascorbate was omitted from the in vitro portion of the assay.

HIF-1a [5] = assay: HIF-1a induction in digitonin-permeabilized human glioma cells (U87, U251); assay type: cell-based; conditions: 1 mM ATP
HPH-1 [6] = target: T1, HPH-1; conditions: 20 mM competitor, ^35S-HPH-1, total binding
Method: Following four further washes radiolabel associated with the pellets was measured via scintillation counting.
We also prepared ^35S-labeled HPH homologues from expression plasmids using the rabbit reticulocyte culture system (Bruick et al. (2001) Science 294, 1337-1340). The 2-OG column allowed us to investigate the binding of ^35S-HPH as well as potential competitors of binding.

HIF-1a protein [7] = assay: Nuclear HIF-1a accumulation in glioma cells by immunohistochemistry; assay type: cell-based, human; conditions: 2 mM, four hours, glucose-free Krebs buffer, Lbl 20 μM
From the text: Cells were then washed, fixed and stained for HIF-1a protein.
as §1

T1 sequence (Q9H6Z9 whole entry): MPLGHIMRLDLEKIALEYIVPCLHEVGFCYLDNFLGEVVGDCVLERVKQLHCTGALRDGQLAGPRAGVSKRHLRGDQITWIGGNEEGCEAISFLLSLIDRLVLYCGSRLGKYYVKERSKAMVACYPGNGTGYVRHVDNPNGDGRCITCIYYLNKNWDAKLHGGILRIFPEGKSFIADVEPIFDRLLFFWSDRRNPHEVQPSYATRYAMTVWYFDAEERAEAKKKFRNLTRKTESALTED

Compound: CCOC(=O)C(C)=O [ethylpyruvate, Ethylpyruvate]
- Ability to induce HIF (HIF-1a accumulation), structure-activity (HIF-1a [1]): identified as HIF-1 activators
- HRE-luciferase expression (HRE containing promoter; six hours, glucose free Krebs, pyruvate, OAA, Ethylpyruvate 2 mM, Lactacystin-beta lactone 20 mM): prominent activation of luciferase gene expression
- HIF-1a accumulation, glucose replaced with metabolite (HIF-1a protein [2]; four hours): as pronounced as those of the known 2-oxoglutarate antagonist dimethyloxalylglycine (DMOG)

Compound: NC(=O)c1ccc[n+]([C@@H]2O[C@H](COP(=O)([O-])OP(=O)(O)OC[C@H]3O[C@@H](n4cnc5c(N)ncnc54)[C@H](O)[C@@H]3O)[C@@H](O)[C@H]2O)c1 [NAD]
- Effect on induction of HIF-1a by glucose (Krebs buffer) (HIF-1a protein [2]): neither NAD or NADH (3 mM each) had any effect on this induction

Compound: O=C(O)CC(O)C(=O)O (stereo not shown) [malate]
- Ability to induce HIF (HIF-1a accumulation), structure-activity (HIF-1a [1]): ineffective

Compound: O=C(O)CCCC(=O)C(=O)O [alpha-ketoadipate]
- Ability to induce HIF (HIF-1a accumulation), structure-activity (HIF-1a [1]): ineffectiveness

Compound: C[C@H](N)C(=O)O [alanine]
- HIF-1a accumulation, glucose replaced with metabolite (HIF-1a protein [2]; four hours): without effect

Compound: CC(C)C(=O)C(=O)O [alpha-ketoisovalerate]
- Ability to induce HIF (HIF-1a accumulation), structure-activity (HIF-1a [1]): capable of stimulating HIF-1a accumulation

Compound: O=C(O)CC(O)(CC(=O)O)C(=O)O [citrate]
- HIF-1a accumulation, glucose replaced with metabolite (HIF-1a protein [2]; four hours): without effect

Compound: CC(=O)C(=O)O [pyruvate]
- Persistence of HIF-1a accumulation after washing out (HIF-1a [3]): > 40 min

Compound: O=S(=O)([O-])[O-].[Fe+2] [Iron, iron sulfate]
- Requirement of substrates and co-factors for HPH activity (HPH-1 [4]): absolutely required up to a maximal of about 100 μM

Compound: O=CC[C@@H](O)[C@H](O)[C@H](O)CO [2-deoxyglucose]
- HIF-1a levels (HIF-1a protein [2]; Krebs buffer with glucose or 5.5 mM 2-deoxyglucose, four hours, normoxia): could not be mimicked

Compound: NC(=O)CI [Iodoacetamide]
- Effect on induction of HIF-1a by glucose (Krebs buffer) (HIF-1a protein [2]): completely blocked the ability of Krebs buffer to stimulate HIF-1a accumulation

Compound: O=C(O)C=Cc1ccc(O)cc1 [Cinnamate, 4-hydroxycinnamate]
- Effect on induction of HIF-1a by glucose (Krebs buffer) (HIF-1a protein [2]): did not prevent the effect of Krebs buffer on HIF-1a accumulation

Compound: Catalase
- Effect on induction of HIF-1a by glucose (Krebs buffer) (HIF-1a protein [2]): had no effect

Compound: CCC(=O)C(=O)O [alpha-ketobutyrate]
- Ability to induce HIF (HIF-1a accumulation), structure-activity (HIF-1a [1]): ineffectiveness

Compound: COC(=O)CNC(=O)C(=O)OC [DMOG, dimethyloxalylglycine]
- Ability to induce HIF (HIF-1a accumulation), structure-activity (HIF-1a [1]): consistently enhanced HIF-1a levels
- HPH activity of extracts of pretreated cells (HPH): No such pretreatment-induced inhibition; also recorded: no such loss of HPH activity

Compound: Nc1ncnc2c1ncn2[C@@H]1O[C@H](COP(=O)(O)OP(=O)(O)OP(=O)(O)O)[C@@H](O)[C@H]1O [ATP]
- HIF-1a levels after direct addition of ATP (HIF-1a [5]): did not raise basal HIF-1a levels; also recorded: had no effect on HIF-1a levels

Compound: lactate
- HIF-1a accumulation, glucose replaced with metabolite (HIF-1a protein [2]; four hours): activate HIF-1a directly

Compound: CC[C@H](C)C(=O)C(=O)O [alpha-keto-beta-methylvalerate]
- Ability to induce HIF (HIF-1a accumulation), structure-activity (HIF-1a [1]): capable of stimulating HIF-1a accumulation

Compound: NC(=O)C1=CN([C@@H]2O[C@H](COP(=O)(O)OP(=O)(O)OC[C@H]3O[C@@H](n4cnc5c(N)ncnc54)[C@H](O)[C@@H]3O)[C@@H](O)[C@H]2O)C=CC1 [NADH]
- Effect on induction of HIF-1a by glucose (Krebs buffer) (HIF-1a protein [2]): neither NAD or NADH (3 mM each) had any effect on this induction

Compound: O=C(O)CCC(=O)C(=O)O [2-oxoglutarate]
- Reversal of HRE-luciferase activation by pyruvate or oxaloacetate (HRE containing promoter; eight hours, oxaloacetate 1 mM, 2-oxoglutarate 10 mM): No reversal was seen
- Requirement of substrates and co-factors for HPH activity (HPH-1 [4]): absolutely required for activity
- Displacement of HPH binding to the 2-oxoglutarate column (HPH-1 [6]): Nearly half of the total binding of HPH to the 2-oxoglutarate column could be displaced
- Displacement of HPH binding to the 2-oxoglutarate column (HPH-1 [6]; listed as 2-OG): could displace this binding

Compound: succinate
- Nuclear HIF-1a accumulation (immunostaining) (HIF-1a protein [7]): ineffectiveness
- Nuclear HIF-1a accumulation (immunostaining) (HIF-1a protein [7]; listed as Succinate): does not affect HIF-1a accumulation
- HIF-1a accumulation, glucose replaced with metabolite (HIF-1a protein [2]; four hours): without effect
- Displacement of HPH binding to the 2-oxoglutarate column (HPH-1 [6]): could not; also recorded: but not by 20 mM succinate

Compound: CC(C)CC(=O)C(=O)O [alpha-ketoisocaproate]
- Ability to induce HIF (HIF-1a accumulation), structure-activity (HIF-1a [1]): capable of stimulating HIF-1a accumulation
